6 compounds from BindingDB's records for doi:10.1016/j.bmc.2021.116220 (University of Colorado Anschutz Medical Campus, 2021) can be followed below.

Broadly, the EC50 is the concentration that produces a half-maximal response.

The assay in a line: Inhibition of RSK2 in human MOLM-13 assessed as reduction in cell viability measured after 72 hrs by MTS assay. In general terms: Tetrazolium assays rely on reduction of a dye to a coloured formazan, in cell work by metabolically active cells.
For `CC(C)CCn1ccc2cnc(Nc3cc(F)c(O)c(F)c3)nc21`, the EC50 came out at 1.3 µM.
The same measure for `CN1CCN(c2ccc(-n3ccc4cnc(Nc5cc(F)c(O)c(F)c5)nc43)cc2)CC1`: 0.07 µM; for `CC(C)CCn1cnc2cnc(Nc3cc(F)c(O)c(F)c3)nc21`: 0.97 µM.
The same measure for `COC(=O)CCCc1ccc(-n2cnc3cnc(Nc4cc(F)c(O)c(F)c4)nc32)cc1`: 13.9 µM; for `Oc1c(F)cc(Nc2ncc3ccn(-c4ccc(N5CCOCC5)cc4)c3n2)cc1F`: 0.23 µM; for `Oc1c(F)cc(Nc2ncc3ncn(-c4ccc(CCN5CCOCC5)cc4)c3n2)cc1F`: 1.9 µM.
